Source: paper PMC8804135 (Neurotherapeutics, 2021)

Tests used:
[1] = In vitro stability in rat serum; type: in vitro ADME; details: 5% rat serum, 20 mM phosphate pH 7.4, 37 °C, 10 µM, HPLC A280, n = 2–3
Experimental: At various time points (0, 30, 90, 270, and 1410 min), 180 µl of samples were quenched with 10 µl 10% TFA and 20 µl 100% ACN. Samples were centrifuged and kept on ice. The amount of full-length peptides in the serum was analyzed using a C12 column (C12 RP 250 × 4.60 mm column, Phenomenex) on a JASCO HPLC system and applying a gradient of 10–90% ACN in 0.1% TFA for 45 min. Peptides were detected at 280 nm. A280 areas in chromatograms of the corresponding GAL-(1–15) and M89b full-length peptide peaks were used to determine the amount of peptide left after incubation with 5% rat serum at the different time points. Peptide peaks were determined using JASCO-Borwin Chromatography software (v1.50).

[2] = In vitro stability in cerebrospinal fluid; type: in vitro ADME; details: cerebrospinal or other body fluid; pooled male Wistar Hannover rat cerebrospinal fluid, 37 °C; 4 µl 0.50 mM peptide + 10 µl CSF; after 4 h; HPLC A280; n = 2–3; read-out: Peptide retrieved in CSF
Experimental: Pooled male Wistar Hannover rat cerebrospinal fluid was purchased from BioIVT (West Sussex, UK). Stability of peptides was analyzed by incubation of 4 µl 0.50 mM GAL-(1–15) with 10 µl cerebrospinal fluid or 6 µl 0.33 mM M89b with 10 µl cerebrospinal fluid at 37 °C [43]. At various time points (0, 30, 60, 240, and 480 min), the reactions were quenched with 2 µl 50% TFA and 20 µl 100% ACN. Water was added to reach a final volume of 220 µl. Samples were centrifuged and kept on ice. Full-length peptides were quantified by using a C12 column (C12 RP 250 × 4.60 mm column, Phenomenex) on a JASCO HPLC system and applying a gradient of 20–90% ACN in 0.1% TFA for 30 min. Peptides were detected at 280 nm. A280 areas in chromatograms of the corresponding GAL-(1–15) and M89b full-length peptide peaks were used to determine the amount of peptide left after incubation with cerebrospinal fluid at the different time points. Peptide peaks were determined using JASCO-Borwin Chromatography software (v1.50).

[3] = In vitro stability in brain plasma; type: in vitro ADME, rat; details: 1% Sprague dawley rat brain plasma, 200 mM phosphate pH 7.4, 37 °C, 10 µM; after 1 h; HPLC A280; n=3
Experimental: The method to study the stability of peptides in brain plasma is described in the Supplementary material. […]
receptor-2-selective agonist reduces acute food intake
Anneke Kuipers1, Márta Balasko2, Erika Pétervári2, Andreas Koller3,4, Susanne M.
Brunner3,4, Gert N. Moll1,5, Barbara Kofler 3*
In vitro stability in brain plasma
Sprague dawley rat brain lyophilized powder was purchased from MyBioSource (San Diego, USA). One gram brain powder was reconstituted in 10 ml PBS, 0.5 ml 2 M Tris (pH=8), 100 µl Triton X -100 and 10 mg SDS. The solution was centrifuged and the supernatant was collected, aliquoted and stored at -20 °C until usage. To assess the stability, 10 µM GAL-(1-15) and 10 µM M89b were incubated in 1% brain plasma buffered with 200 mM phosphate buffer (pH 7.4) at 37°C for up to 6 hours. At various time points […]
20 µl 100% ACN. Samples were centrifuged and kept on ice. Full-length peptides were quantified by using a C12 column (C12 RP 250 x 4.60 mm column, Phenomenex) on a JASCO HPLC system and applying a gradient of 20 -90% ACN in 0.1% TFA for 30 minutes.
Peptides were detected at 280 nm. A280 areas in chromatograms of the corresponding GAL-(1-15) and M89b full-length peptide peaks were used to determine the amount of peptide left after incubation with cerebrospinal fluid at the different time points. Peptide peaks were determined using JASCO-Borwin Chromatography software (v1.50).

[4] = cited from earlier work
Description: The use of natural galanin in clinical applications faces two serious limitations: lack of receptor specificity and in vivo susceptibility to rapid peptidase-mediated breakdown. […] Recently, a selective GAL2R agonist based on the sequence of spexin, a newly discovered natural peptide with affinity for GAL2R and ...

[5] = target: T1, GAL2R (Homo sapiens, UniProt O43603); set-up: expressed in transfected cells; host or cells: HEK293 Gqi cells, transient; plasmids from Young Seong (Korea University); details: cited from earlier work
T1 sequence (O43603 1-387): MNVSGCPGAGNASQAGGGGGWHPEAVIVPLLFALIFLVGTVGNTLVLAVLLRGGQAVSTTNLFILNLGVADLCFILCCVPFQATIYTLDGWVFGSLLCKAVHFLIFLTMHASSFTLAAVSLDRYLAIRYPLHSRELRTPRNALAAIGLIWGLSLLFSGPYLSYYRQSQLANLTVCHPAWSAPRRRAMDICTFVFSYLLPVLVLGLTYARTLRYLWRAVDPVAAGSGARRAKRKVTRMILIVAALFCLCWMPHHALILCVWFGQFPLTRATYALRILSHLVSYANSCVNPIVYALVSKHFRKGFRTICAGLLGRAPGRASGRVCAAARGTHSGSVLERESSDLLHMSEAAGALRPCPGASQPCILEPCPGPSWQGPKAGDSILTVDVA
Description: Since the discovery of the three GALRs, major effort has been directed at developing receptor-selective agonists and antagonists. These were based on substitution of certain amino acids in the galanin peptide sequence. While receptor selectivity was achieved to some degree, GAL(2–11) turned out to be a very selective non-GAL1R agonist.

[6] = test system: non-fasted male Wistar rats; assay: Food intake and body weight after intranasal application of peptides; type: in vivo, rat
Experimental: For intranasal delivery, 1 mg of M89b was first dissolved in 566 µl 2,2,2-trifluorethanol, 566 µl 10% (2-hydroxypropyl)-ß-cyclodextrin (HBC), and 1 µl acetic acid and incubated at 60 °C for 20 min. Another 566 µl of 10% HBC were added. The peptide was then dried in a speed-vac, and the dried pellet was dissolved in 1132 µl water by vortexing and incubation at 60 °C. M871 and GALP were purchased from GL Biochem. M871 was dissolved in saline containing 10% HBC. GALP was dissolved in saline containing 5% α-cyclodextrin.
In vivo experiments involving intranasal treatment of rats and measurement of feeding behavior were performed at the Institute for Translational Medicine, University of Pécs, Pécs, Hungary. Experiments were approved by the National Ethical Council for Animal Research (permit number, BA 02/2000–11/2018). They were also in accord with the directives of the European Communities Council on the protection of animals used for scientific purposes (86/609/EEC, Directive 2010/63/EU of the European Parliament and of the Council).
Spontaneous food intake was measured in non-fasted male Wistar rats (3 months old) for 24 h following intranasal application of peptide solutions by an automated FeedScale System (Columbus, OH). Each group of animals (6–9 rats/group) was habituated to the individual chambers of the FeedScale System until daily food intake and changes in the body weight of the animals had normalized. This habituation, which lasted for a minimum of 2 weeks, allowed adaptation to the environment, to the powdered chow and to the feeder. This powdered form of chow prevented food hoarding. A special digital scale under the cages provided precise automated measurement and continuous recording of the amount of consumed food. During the measurement of the cumulative 24 h food intake, data were collected every 30 min.
Intranasal applications were performed at 06:00 PM at the onset of the active nighttime period of rats. First, the body weight of animals was recorded, and then they were intraperitoneally anesthetized with ketamine (52 mg/kg) and xylazine (9 mg/kg). For the intranasal application of peptides, rats were placed on their backs, and 25–30 µl of peptide solution was injected gently per nostril (total volume of 50–60 μl per rat depending on the administered peptides) using a 10-μl pipette. The following solutions were applied: M89b (25 nmol in 60 µl saline containing 10% HBC); GALP (17.5 nmol in 50 µl saline containing 5% α-cyclodextrin); M871 (219 nmol in 60 µl 10% HBC); and M89b + M871 (25 nmol M89b + 219 nmol M871 in 60 µl 10% HBC). […] At 24 h post-treatment, the body weight of the animals was measured.
Statistical analysis was performed with SPSS 11.0. […] Body weight data were analyzed by applying a one-way ANOVA with Tukey’s post hoc test. […]

[7] = intranasal administration with α-cyclodextrins; cited from earlier work
Description: For delivery of therapeutic peptides and proteins to the brain, the blood–brain barrier (BBB) is a major impediment. Intranasal delivery might provide a non-invasive means to bypass the BBB. Advantages of applying peptides via the nasal route, provided they do indeed reach the brain, include minimizing exposure to peripheral organs and tissues, thus reducing systemic side effects. […] Intranasal delivery of peptides may provide the ability to target specific re ...

Question: Which metabolised at 0.5 h, 10 µM ([1]; after 30 min, read-out: Peptide degraded in rat serum) does the source give for `CC(C)C[C@H](NC(=O)[C@H](CC(C)C)NC(=O)[C@H](Cc1ccc(O)cc1)NC(=O)CNC(=O)[C@H](C)NC(=O)[C@H](CO)NC(=O)[C@H](CC(N)=O)NC(=O)[C@H](CC(C)C)NC(=O)[C@@H](NC(=O)[C@H](Cc1c[nH]c2ccccc12)NC(=O)CN)[C@@H](C)O)C(=O)NCC(=O)N1CCC[C@H]1C(=O)N[C@@H](Cc1c[nH]cn1)C(=O)N[C@@H](C)C(N)=O` [GAL-(1–15), reference compound] here?
Answer: The metabolised at 0.5 h, 10 µM was 80%.

Question: What about the remaining at 1.5 h, 10 µM ([1]; after 90 min, read-out: Peptide detectable in rat serum) of the same compound?
Answer: The remaining at 1.5 h, 10 µM was under 2%.

Question: What about the remaining at 4 h, 143 µM [2] of the same compound?
Answer: The remaining at 4 h, 143 µM was under 4%.

Question: What about the “Degradation in brain plasma” value [3] of the same compound?
Answer: The value was “the whole amount of GAL-(1–15) was degraded”.

Question: Which “In vivo half-life in plasma” value [4] does the source give for `CC(C)C[C@H](NC(=O)CNC(=O)[C@H](CC(N)=O)NC(=O)[C@H](CCCCN)NC(=O)[C@H](CC(=O)O)NC(=O)[C@H](CO)NC(=O)[C@H](Cc1ccccc1)NC(=O)[C@H](CO)NC(=O)[C@H](CCCNC(=N)N)NC(=O)[C@H](Cc1cnc[nH]1)NC(=O)[C@H](CC(N)=O)NC(=O)CNC(=O)[C@@H](NC(=O)[C@H](C)NC(=O)[C@H](Cc1cnc[nH]1)NC(=O)[C@@H]1CCCN1C(=O)CNC(=O)[C@H](CC(C)C)NC(=O)[C@H](CC(C)C)NC(=O)[C@H](Cc1ccc(O)cc1)NC(=O)CNC(=O)[C@H](C)NC(=O)[C@H](CO)NC(=O)[C@H](CC(N)=O)NC(=O)[C@H](CC(C)C)NC(=O)[C@@H](NC(=O)[C@H](Cc1c[nH]c2ccccc12)NC(=O)CN)[C@@H](C)O)C(C)C)C(=O)N[C@H](C(=O)N[C@@H](CO)C(=O)O)[C@@H](C)O` [galanin] here?
Answer: The value was “around 4 min”.

Question: For Ala5-galanin(2–11), which “Preference for GAL2R compared to both GAL1R and GAL3R” value [5] is on record?
Answer: Its value is “more than 375 fold”.

Question: What does the source list for “galanin-like peptide (APAHRGRGGWTLNSAGYLLGPVLHLPQMGDQDGKRETALEILDLWKAIDGLPYSHPPQPS; Galanin-like peptide; UniProt Q9UBC7 25-84, looked up) [GALP, reference compound]”?
Answer: Reduction of 24-h food intake ([6]; intranasal 17.5 nmol in 50 µl saline with 5% α-cyclodextrin, vs vehicle, p = 0.038): 19%; 24-h body weight change ([6]; intranasal 17.5 nmol in saline with 5% α-cyclodextrin, p = 0.0247 as printed): trend of reduction, but this change did not reach statistical significance; Increase of uptake in all brain regions compared to GALP alone [7]: two- to threefold
